In US6114326A, “Use of cabergoline in the treatment of restless legs syndrome” (priority 1999, dated 2000):
Entries after “also recorded” stand apart in the source; their conditions may differ.

Legend:
D1 family of receptors = details: cited from earlier work
[1] = system: D2 and D3 molecular receptors; details: cited from earlier work
[2] = cited to Ahlskog et al. 1996; cited from earlier work
[3] = system: restless legs syndrome patients; assay: Polysomnography in 12-week open label pilot trial of single evening cabergoline dose in RLS; assay type: in vivo
Method: Cabergoline in RLS, ENS, Nice, Abstract.
(§1) Efficacy was assessed by polysomnography and subjective ratings.
(§2) Following a 2-week baseline period, all patients were treated with cabergoline in an open trial for 12 weeks. Apart from levodopa, patients had to stop taking any medication known to have positive or negative effect on RLS two weeks before baseline (i.e., other dopamine agonists, benzodiazepines, opioids or other psychotropic agents). Patients who were on levodopa therapy were allowed to either stop levodopa prior to study entry or to continue, taper or discontinue levodopa during the study. To prevent well known peripheral dopaminergic side-effects such as nausea, vomiting, vertigo and arterial hypotension domperidone (not available in the United States) was comedicated initially and also tapered if possible. […] Neurological case history, examination, electrocardiogramm, chest x-ray and polysomnography were performed to ensure that selection criteria were fulfilled. A two-night PSG (including one night of adaptation) was performed to evaluate the diagnosis and inclusion/exclusion criteria regardless if patients were on or off levodopa. After a 12-week treatment period patients were studied again for one night in the sleep laboratory. Subjective ratings were obtained at baseline, week 4, week 8 and at the endpoint after 12 weeks. In addition patients were monitored by phone calls to note any adverse events and to determine whether to increase the dosage of the study drug, to decrease levodopa and to decrease domperidone. The time schedule of phone calls was variable and the frequency mostly dependent on the presence of simultaneous levodopa therapy.
Inclusion criteria. Patients were included if they fulfilled the minimal diagnostic criteria according to the International RLS Study Group. After rating clinical symptoms at baseline, patients were referred to polysomnography without any RLS specific treatment other than levodopa. Patients were included if they had more than five PLM per hour of time-in-bed (PLM index) and a sleep efficiency index (total sleep time per hour time-in-bed) of less than 85%.
Exclusion criteria. Patients with signs of any other sleep disorder on PSG, especially sleep apnea syndrome (respiratory disturbances index >5 per hour total sleep time), were excluded. Subjects receiving neuroleptic, antidepressant or other psychotropic medications or with any severe additional illness (with special consideration to pulmonary fibrosis) or drug abuse were also excluded. Patients with established or suspected hypersensitivity to ergot derivates and patients with clinical significant change in routine laboratory studies were not included. Pregnant or lactating women or women without safe contraception were not allowed to participate in this study.
(§3) Dosing. Study medication was available in tablets containing 0.5 mg, 1 mg or 2 mg Cabergoline (Cabaseril®, Pharmacia & Upjohn, Erlangen, Germany). Medication was taken 2 hours prior to bedtime. Initial therapy consisted of one 0.5 mg tablet. […] The increased dose could be decreased again if necessary. All patients were initially comedicated with domperidone 20 mg t.i.d. which could be tapered and stopped if possible. Subjects who were pretreated with levodopa were asked to decrease levodopa simultaneously if possible.
Polysomnographic studies. At baseline and at the study end after 12 weeks PSG recordings were performed for one night (11 p.m.-7 a.m.) to evaluate inclusion/exclusion criteria and to obtain primary and secondary efficacy parameters. Studies included monitoring of electroencephalogram (EEG) (C3-A2, C4-A1), electrooculogram, chin EMG, EMG of both anterior tibialis muscles and electrocardiogram (ECG). PSG methods used standard procedures such as Pollmacher and Schultz. At baseline respiration, oronasal airflow, respiration effort and oxygen saturation were monitored by standard methods. Sleep scoring was also done by methods. […]

[4] = Half-life and duration of action; assay type: in vivo; details: 'here we report'
D2 family of receptors = details: cited from earlier work
[5] = system: restless legs syndrome patients; assay: Patients' subjective ratings (PGI, RLS severity, sleep satisfaction, sleep diary, quality of life) in 12-week open label trial; assay type: in vivo
Method: as §1, §2, §3
Subjective ratings. After each night of recording and at each visit at week 2 and 4, patients rated the severity of illness (normal to extremely ill), the therapeutic effects by rating their global improvements by use of the Patients Global Impressions (general condition very much worse to very much better), the severity of RLS symptoms during the time of falling asleep, during the night and during the day (scale: 0=not present to 10=very strong) and sleep satisfaction (very unsatisfied to very satisfied). In addition patients rated their quality of life, concerning well being and complaints during the previous week, using modified 50-mm Hamburger Visual Analogue Scale. Patients also filled in a sleep diary at each study visit rating the following symptoms: global assessment of sleep (very bad to very good night), sleep latency, sleep time, frequency of awakenings and urge to move the legs at time falling asleep, during the night and during the day (scale: 0=not present to 10=very strong).
(§4) Statistical analysis. Statistical evaluation was performed as intent-to-treat analysis using descriptive statistics.

[6] = system: restless legs syndrome patients; assay: Physician's rating (CGI) in 12-week open label trial; assay type: in vivo
Method: as §2
Physician's rating. The physician rated the severity of illness at baseline (normal to extremely ill), the global improvement (general condition very much worse to very much better) and the side effects by use of the Clinical Global Impressions (CGI). Safety. Safety of Cabergoline was assessed to the type and frequency of adverse event, clinically significant changes in laboratory data or ECG and premature discontinuation of study participation. Adverse events were classified as serious versus nonserious and characterized by intensity, relationship to drug treatment, frequency, course and therapeutic intervention.
as §4

[7] = of 9 patients, under cabergoline

C=CCN1C[C@H](C(=O)N(CCCN(C)C)C(=O)NCC)C[C@@H]2c3cccc4[nH]cc(c34)C[C@H]21 [Cabergoline, 1((6-allylergolin-8β-yl) -carbony.)-1-(3-(dimethylamino)propyl)-3-ethylurea]
D1 family activity (in words) (D1 family of receptors): partial D1 activity; also recorded: partial DI family activity
D2 versus D3 binding (in words) [1]: greater D2 over D3 binding
duration of action [2]: at least 24 hours
increase in total sleep time ([3]; endpoint vs. baseline): more than one
reduction of PLM during time in bed, PLM arousals and PLM awakenings (in words) ([3]; endpoint vs. baseline): significant reduction
sleep efficiency (in words) ([3]; endpoint vs. baseline): increased
sleep latency (in words) ([3]; endpoint vs. baseline): shortened
total sleep time (in words) ([3]; endpoint vs. baseline): prolonged
total number of PLM during time in bed (No. Of PLM) ([3]; week 12, cabergoline monotherapy (mean 2.1 mg, single evening dose), baseline 195.8 ± 109.1): 26.4±40.2
number of PLM awakenings ([3]; week 12, cabergoline monotherapy, baseline 9.6 ± 4.9): 1.0±2.0
PLM arousal index ([3]; week 12, cabergoline monotherapy, baseline 10.4 ± 7.8): 1.0±1.7 number of PLM arousals per hou
PLM index ([3]; week 12, cabergoline monotherapy, baseline 27.7 ± 17.1): 3.6±5.3 number of PLM per hour time in
Sleep Latency ([3]; week 12, cabergoline monotherapy, baseline 42.4 ± 49.1): 16.3 ± 22.8 min
PLM arousals ([3]; week 12, cabergoline monotherapy, baseline 51.7 ± 42.3): 6.4±11.2
Sleep efficiency ([3]; week 12, cabergoline monotherapy, baseline 63.1 ± 10.5): 79.1±12.5%
Total sleep time ([3]; week 12, cabergoline monotherapy, baseline 302.7 ± 50.7): 379.4 ± 59.8 min
duration of action (may last) [4]: ≤ 65 h
D2 family agonist activity (in words) (D2 family of receptors): full D2 family agonist
subjective and objective sleep parameters (in words) ([5]; 12-week treatment, 1 to 4 mg (mean 2.1 mg)): marked improvement
relief of RLS symptoms (in words) ([5]; all patients, 12 weeks, 1 to 4 mg single evening dose): significant relief or became free of RLS symptoms; also recorded: complete or significant relief of RLS symptoms
times patients had to get up per night (sleep diary) ([5]; endpoint, baseline 2.1): 0.6 times per night
duration of efficacy in RLS therapy ([5]; human, in vivo): 24 h
markedly satisfied with sleep, number of patients ([5]; of 9 patients, endpoint): 4
moderately satisfied with sleep, number of patients ([5]; of 9 patients, endpoint): 1
moderately unsatisfied with sleep, number of patients ([5]; of 9 patients, endpoint): 2
severity of illness rated borderline (PGI), number of patients ([5]; of 9 patients, endpoint): 2
severity of illness rated moderately ill (PGI), number of patients ([5]; of 9 patients, endpoint): two
severity of illness rated normal (PGI), number of patients ([5]; of 9 patients, endpoint, at baseline extremely (2), very (4) or markedly (3) ill): 5
very satisfied with sleep, number of patients ([5]; of 9 patients, endpoint, baseline very (1), markedly (6) or moderately (2) unsatisfied): 2
general condition much better (PGI), number of patients [5, 7]: 3
general condition very much better (PGI), number of patients [5, 7]: 6
RLS severity during the time of falling asleep ([5]; scale 0=not present to 10=very strong, last week, baseline 4.9±4.3): 0.4±0.7
RLS severity during the day ([5]; scale 0=not present to 10=very strong, last week, baseline 5.1±3.4): 0.8±1.7
RLS severity during the night ([5]; scale 0=not present to 10=very strong, last week, baseline 6.7±2.7): 1.6±2.6
global quality of the previous night (sleep diary) ([5]; scale zero (very bad) to 10 (very good), endpoint, baseline 3.1): 6.9
efficacy in restless legs syndrome (in words) ([5]; single evening dose, incl. severe RLS and levodopa augmentation): effective and well tolerated; also recorded: very effective and well tolerated
quality of life (Hamburger Visual Analogue Scale), in words ([5]; vs. baseline conditions): much better
global improvement (physician's rating, in words) ([6]; in vivo): significant global improvement
general condition minimally better (physician's rating), number of patients ([6]; of 9 patients): 1
general condition much better (physician's rating), number of patients ([6]; of 9 patients): 3
general condition very much better (physician's rating), number of patients ([6]; of 9 patients): 5
